# Measured values as given in patent US20250214951A1, “3-PHENYLISOXAZOLE DERIVATIVE, AND PHARMACEUTICAL COMPOSITION FOR PREVENTING OR TREATING EYE DISEASE, CONTAINING SAME AS ACTIVE INGREDIENT” (VASTHERA CO., LTD., priority 2022, published 2025).
# Assays:
# A2E-BDP in ARPE-19 cells [1] = assay: Removal of A2E-BDP by concentration, fluorescence and phase contrast microscopy; assay type: cell-based, human; conditions: ARPE-19 with A2E-BDP; 10, 25, 50 μM, 24 h; FIG. 1
# Description: ARPE-19 cell line was dispensed into a 24-well plate at a concentration of 4×10^4 cells/well and cultured for 24 hours. In order to induce A2E-BDP accumulation in ARPE-19 cell line, the cells were treated with […] of 10 μM for 24 hours. The A2E-BDP-containing ARPE-19 cells were treated with compound 17 (10, 25, 50 μM) for 24 hours. The level of A2E-BDP in each cell was measured as a fluorescence image at 510 nm using a Nikon Eclipse Ti—U fluorescence microscope (Tokyo, Japan). In addition, the change in cell number according to compound treatment was observed using a general phase contrast microscope, and the results are shown in FIG. 1. Meanwhile, lutein was used as a control substance.
# A2E-BDP in ARPE-19 cells [2] = assay: A2E-BDP removal ability by concentration of other example compounds; assay type: cell-based, human; conditions: indicated concentrations; FIG. 13
# Description: (§1) The human retinal pigment epithelial cell line (ARPE-19) used in the experiment was provided by ATCC (American Type Culture Collection). The ARPE-19 cell line was cultured in DMEM medium containing 10% FBS. After culture, the cells were dispensed into 96-well plates at a concentration of 4×10^3 cells/well and cultured for 24 hours. The ARPE-19 cell line was treated with A2E-fluorescent labeling substance (A2E-BDP) at a concentration of 10 μM for 24 hours to induce the accumulation of A2E-BDP in the ARPE-19 cell line.
# (§2) In order to evaluate the intracellular A2E removal ability of the compound of the present invention, an easily detectable A2E-fluorescent labeling substance (A2E-BDP) was used. The ARPE-19 cells prepared by the above method were treated with each test compound at a concentration of 50 μM once, and then cultured for 24 hours. The cells were lysed by adding a cell lysis buffer containing a protease inhibitor (50 mM Tris-chloride, pH 8.0, 150 mM sodium chloride, 1% NP-40, 1% sodium deoxycholate, 1% sodium dodecyl sulfate, and 2 mM ethylenediamine tetraacetic acid) to each 96-well. The prepared cell lysate was transferred to a white 96-well plate, and the fluorescence intensity was measured using a fluorescence microplate reader (VICTOR™ X3, Perkin Elmer, USA) (excitation 485 nm, emission 535 nm).
# The A2E-fluorescent labeling substance (A2E-BDP) removal ability was evaluated according to Experimental Example 1 (except that the test compound was treated at the indicated concentration).
# [3] = system: p62 protein phosphorylated at serine 349 (p-p62 (S349)); assay: Autophagy activation by increase of p-p62 (S349), Western immunoblotting; assay type: cell-based, human; conditions: indicated concentrations; FIG. 14
# Description: The cells were treated with the test compounds at the indicated concentrations, and the autophagy activation effect through the increase of p62 protein (p-p62 (S349)) phosphorylated at serine 349 residue was measured by Western immunoblotting using an anti-p-p62 antibody, and the results are shown in FIG. 14. The increase in the intracellular P-p62 ([…]) level is one of the major indicators of autophagy activation.
# [4] = system: A2E-BDP present in human retinal pigment epithelial cells (ARPE-19); assay: Screening of ability to remove A2E-fluorescent labeling substance (A2E-BDP), lysate fluorescence; assay type: cell-based; conditions: ARPE-19, 24 h, ARPE-19 loaded with 10 μM A2E-BDP 24 h, test compound 50 μM once, fluorescence ex 485/em 535 nm, read-out: Capacity (%) to remove A2E-BDP at 50 μM
# Description: as §1, §2
SMILES,A2E-BDP fluorescence intensity (fluorescence microscope) (A2E-BDP in ARPE-19 cells [1]),A2E-BDP removal ability by concentration (amount of A2E) (A2E-BDP in ARPE-19 cells [2]),autophagy activation through increase of p-p62 (S349) [3],inhibition at 50 µM [4]
"CC1=C[C@H](O)CC(C)(C)[C@H]1/C=C/C(C)=C/C=C/C(C)=C/C=C/C=C(C)/C=C/C=C(C)/C=C/C1=C(C)C[C@@H](O)CC1(C)C [lutein, reference compound]",a decrease in fluorescence intensity was observed,–,–,–
"COc1ccc(Br)cc1-c1cc(CN2CCN(C(=O)OC(C)(C)C)CC2)on1 [Example 21, tert-butyl 4-((3-(5-bromo-2-methoxyphenyl)isoxazole-5-yl)methyl)piperazine-1-carboxylate]",–,concentration-dependent decrease in the amount of A2E,activated autophagy in a concentration-dependent manner,≥ 60%
